Results taken from ChEMBL document CHEMBL1201862, “PubChem BioAssay data set” (2004).
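Dose response: 5 concentrations. Exposure: 48 h. Format: 96-well plates. Endpoint: linear interpolation; highest concentration if not reached. Here, GI50 denotes the concentration required for 50% inhibition of growth.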 Active and inactive are the calls of the source. Cut-off read from the data, not from the text of the source: active = GI50 up to about 1.1 µM and inactive = higher.

Experiments:
Assay in all cases: NCI anticancer screen, dose series, 48 h
MOLT-4 = test system: MOLT-4
A498 = test system: A498
DU-145 = test system: DU-145
SK-OV-3 = test system: SK-OV-3
UACC-62 = test system: UACC-62
LOX IMVI = test system: LOX IMVI
HT-29 = test system: HT-29
SR = test system: SR
OVCAR-3 = test system: OVCAR-3
MDA-MB-231 = test system: MDA-MB-231
SF-295 = test system: SF-295
Malme-3M = test system: Malme-3M
NCI-H23 = test system: NCI-H23
HOP-62 = test system: HOP-62
MDA-N = test system: MDA-N
786-0 = test system: 786-0
SK-MEL-2 = test system: SK-MEL-2
T47D = test system: T47D
RXF 393 = test system: RXF 393

Compound | GI50 (MOLT-4) | GI50 (A498) | GI50 (DU-145) | GI50 (SK-OV-3) | GI50 (UACC-62) | GI50 (LOX IMVI) | GI50 (HT-29) | GI50 (SR) | GI50 (OVCAR-3) | GI50 (MDA-MB-231) | GI50 (SF-295) | GI50 (Malme-3M) | GI50 (NCI-H23) | GI50 (HOP-62) | GI50 (MDA-N) | GI50 (786-0) | GI50 (SK-MEL-2) | GI50 (T47D) | GI50 (RXF 393)
O=C(O)c1c(-c2nccc3ccccc23)[nH]c(-c2ccccc2)c1S(=O)(=O)O | 47.6 µM (inactive) | > 100 µM (inactive) | > 100 µM (inactive) | > 100 µM (inactive) | > 100 µM (inactive) | > 100 µM (inactive) | > 100 µM (inactive) | > 100 µM (inactive) | > 100 µM (inactive) | > 100 µM (inactive) | > 100 µM (inactive) | > 100 µM (inactive) | > 100 µM (inactive) | > 100 µM (inactive) | > 100 µM (inactive) | > 100 µM (inactive) | > 100 µM (inactive) | > 100 µM (inactive) | > 100 µM (inactive)
CC(C)(C)OC(=O)CN1CCNCCNCC1 | > 100 µM (inactive) | > 100 µM (inactive) | > 100 µM (inactive) | > 100 µM (inactive) | > 100 µM (inactive) | > 100 µM (inactive) | > 100 µM (inactive) | > 100 µM (inactive) | > 100 µM (inactive) | > 100 µM (inactive) | > 100 µM (inactive) | > 100 µM (inactive) | > 100 µM (inactive) | > 100 µM (inactive) | > 100 µM (inactive) | > 100 µM (inactive) | > 100 µM (inactive) | > 100 µM (inactive) | > 100 µM (inactive)
CSc1cnc2ccccc2c1SC1CN(Cc2ccccc2)c2ccccc2C1=O (configuration not stated) | > 100 µM (inactive) | > 100 µM (inactive) | > 100 µM (inactive) | > 100 µM (inactive) | > 100 µM (inactive) | > 100 µM (inactive) | 47.9 µM (inactive) | > 100 µM (inactive) | > 100 µM (inactive) | > 100 µM (inactive) | > 100 µM (inactive) | > 100 µM (inactive) | > 100 µM (inactive) | 32.1 µM (inactive) | > 100 µM (inactive) | > 100 µM (inactive) | > 100 µM (inactive) | > 100 µM (inactive) | > 100 µM (inactive)
N#C/C(=C1C=C(Br)/C(=N\O)C=C\1Cl)c1cccc2ccccc12 | 3.75 µM (inactive) | 9.02 µM (inactive) | 3.31 µM (inactive) | 5.33 µM (inactive) | 4.12 µM (inactive) | 4.29 µM (inactive) | 2.26 µM (inactive) | 3.11 µM (inactive) | 2.76 µM (inactive) | 4.32 µM (inactive) | 3.12 µM (inactive) | 6.37 µM (inactive) | 13.2 µM (inactive) | 10.3 µM (inactive) | 1.61 µM (inactive) | 3.34 µM (inactive) | 2.48 µM (inactive) | 2.38 µM (inactive) | 1.37 µM (inactive)
O=C1c2cccc3cccc(c23)C(=O)N1CCCNCCCNCCCCNCCCNCCCN1C(=O)c2cccc3cccc(c23)C1=O | 0.376 µM (active) | 6.38 µM (inactive) | 3.66 µM (inactive) | 12.9 µM (inactive) | 2.82 µM (inactive) | 2.55 µM (inactive) | 1.39 µM (inactive) | 0.929 µM (active) | 4.67 µM (inactive) | 3.78 µM (inactive) | 7.45 µM (inactive) | 2.6 µM (inactive) | 2.12 µM (inactive) | 3.79 µM (inactive) | 2.36 µM (inactive) | 1.07 µM (active) | 4.01 µM (inactive) | 5.26 µM (inactive) | 3.34 µM (inactive)
CNC(=O)N(CCC#N)CCCN(C(=O)N(C)C)c1ccccc1 | > 100 µM (inactive) | > 100 µM (inactive) | > 100 µM (inactive) | > 100 µM (inactive) | > 100 µM (inactive) | > 100 µM (inactive) | > 100 µM (inactive) | 14.5 µM (inactive) | > 100 µM (inactive) | > 100 µM (inactive) | > 100 µM (inactive) | > 100 µM (inactive) | > 100 µM (inactive) | > 100 µM (inactive) | > 100 µM (inactive) | > 100 µM (inactive) | > 100 µM (inactive) | > 100 µM (inactive) | > 100 µM (inactive)
COc1c(Cl)ccc(Cl)c1C(=O)NNC(=O)c1c(Cl)c(Cl)c(Cl)c(Cl)c1-c1nc2cc(C(=O)c3ccccc3)ccc2[nH]1 | 20.6 µM (inactive) | 61.2 µM (inactive) | > 100 µM (inactive) | > 100 µM (inactive) | – | 55.1 µM (inactive) | 62.1 µM (inactive) | 37.2 µM (inactive) | 30.5 µM (inactive) | 37.6 µM (inactive) | 34.9 µM (inactive) | 54.3 µM (inactive) | 64.1 µM (inactive) | 82 µM (inactive) | 33.3 µM (inactive) | 72.4 µM (inactive) | 31.9 µM (inactive) | 15.5 µM (inactive) | 19.5 µM (inactive)
O=C(Nc1ccn(C2CCC(CO)O2)c(=O)n1)c1ccccc1 (configuration not stated) | > 100 µM (inactive) | 50.4 µM (inactive) | > 100 µM (inactive) | > 100 µM (inactive) | > 100 µM (inactive) | > 100 µM (inactive) | > 100 µM (inactive) | > 100 µM (inactive) | – | > 100 µM (inactive) | > 100 µM (inactive) | > 100 µM (inactive) | > 100 µM (inactive) | > 100 µM (inactive) | > 100 µM (inactive) | > 100 µM (inactive) | > 100 µM (inactive) | > 100 µM (inactive) | > 100 µM (inactive)
CN(CCC(=O)O)C1=Nc2ccc(Cl)cc2C(c2ccccc2)=[N+]([O-])C1 | > 100 µM (inactive) | > 100 µM (inactive) | > 100 µM (inactive) | > 100 µM (inactive) | > 100 µM (inactive) | > 100 µM (inactive) | > 100 µM (inactive) | > 100 µM (inactive) | > 100 µM (inactive) | > 100 µM (inactive) | > 100 µM (inactive) | > 100 µM (inactive) | > 100 µM (inactive) | > 100 µM (inactive) | > 100 µM (inactive) | > 100 µM (inactive) | > 100 µM (inactive) | > 100 µM (inactive) | > 100 µM (inactive)
CCC1(O)C(=O)OCc2c1cc1n(c2=O)Cc2cc3ccccc3nc2-1 (configuration not stated) | < 0.01 µM (active) | 0.94 µM (active) | 0.018 µM (active) | 0.0312 µM (active) | 0.0128 µM (active) | < 0.0152 µM (active) | 0.0653 µM (active) | < 0.01 µM (active) | 0.308 µM (active) | 0.857 µM (active) | < 0.01 µM (active) | 0.431 µM (active) | < 0.0188 µM (active) | < 0.0149 µM (active) | 0.0817 µM (active) | 0.0279 µM (active) | 0.575 µM (active) | 0.0237 µM (active) | 0.073 µM (active)
CC(C)C[C@H](NC(=O)[C@H](Cc1cccc2ccccc12)NC(=O)N1CCOCC1)B(O)O | < 0.01 µM (active) | < 0.01 µM (active) | < 0.01 µM (active) | 0.008 µM (active) | < 0.01 µM (active) | < 0.01 µM (active) | < 0.01 µM (active) | < 0.0126 µM (active) | < 0.01 µM (active) | < 0.01 µM (active) | 0.00348 µM (active) | < 0.01 µM (active) | < 0.01 µM (active) | < 0.01 µM (active) | < 0.01 µM (active) | 0.00362 µM (active) | < 0.01 µM (active) | < 0.01 µM (active) | 0.000555 µM (active)
